The values that follow come from US10912749B2, “Conjugate acid salt of N,N-dimethylglycine with organic acid, and composition and use thereof” (GUANGZHOU INSIGHTER BIOTECHNOLOGY CO., LTD., priority 2017, dated 2021).

Where a name gives a salt, the structure may show the parent alone. Marks after values point to notes of the source that are not given here.

Data set [1] is described as follows: High-humidity stability test. Format: physicochemical. The following applies: for hygroscopicity (in words): 25° C. and RH 95%, weight gains at day 5 turned the samples into water-like status; for hygroscopic weight gain Day 5 (%) / hygroscopic weight gain Day 10 (%): 25° C., RH 95%±1%, mean value±standard error, three parallels. The procedure: Method: A KNO3 saturated solution (25° C., […]) was placed in the lower part of a constant-temperature and constant-humidity sealed container. The test samples, three parallels for each test sample, were placed at 25° C. and RH 95%±1% for 10 days, and their average weight gains were measured at day 5 and day 10.

In a further data set the test system is grass carps. Description: Growth promotion experiment in aquatic feed. Format: in vivo. The conditions noted are these: 450 ppm in feed, 8 weeks; for SR (%): survival rate. The procedure:
Test fish: The experiment fish were grass carps, born at the year of the test, from Dafeng hatchery in Huizhou City, Guangdong Province. Healthy and lively grass carps of the same size were reared in big net cages (4×2×1.5 m^3) for four weeks before the breeding experiment. The experiment system included floating small net cages (1.1×1.1×1.1 m^3), each small net cage was provided with an aerator and aerated 24 hours every day. […] 384 fish which were similar in body weight and had been starved for 1 day were randomly divided into 8 groups, 4 replicates in each group and 12 fish in each replicate. The fish of each replicate were weighed and transferred to […] net cages, and fed with different test feeds respectively.
Experiment feeds: The experiment feeds were prepared according to Table 6. The groups were respectively provided with different conjugate acid salts of N,N-dimethylglycine with metal and organic acid in the same concentration according to Table 7. Raw materials of the feed were ultra-pulverized, and then turned into floating expanded feed having a particle size of 3 mm by using a feed extruder from Jiangsu Muyang Group Co., Ltd. wherein the extruding temperature was 130° C., and 3% of soybean oil was sprayed on the feed using an oil sprayer. The feed was then sealed and stored in a cool place for later use.
Test management: The experiment was carried out with diet restriction, the diet amount was adjusted once a week, the feeding level (based on initial weight) of each group was exactly the same, and feeding was conducted twice every day (at 7:30 and 15:00). The experiment was carried out for 8 weeks. During the experiment, water quality was monitored regularly to maintain the following conditions: water temperature 26.88±3.08° C., DO>5.0 mg O L^−1, pH 7.8, ammonia nitrogen <0.50 mg N L^−1, and nitrite nitrogen <0.05 mg N L^1.
Parameter statistics: In the experiment, the fish in each net cage were weighed as a whole after starved for 1 day so as to calculate their weight gain (WG, %), feed conversion ratio (FCR) and survival rate (SR, %), through the following formula. Weight gain (WG, %)=100×(average final weight−average initial weight)/average initial weight Feed conversion ratio (FCR)=feed intake/fish weight gain Survival rate (SR, %)=100×fish amount at the end of the test/fish amount at the beginning of the test

The test system of another data set is Sanhuang broilers. The data set can be described thus: Breeding experiment in broiler feed (production performance). Format: in vivo. The procedure: The experiment was carried out by single-factor randomized design. 1080 22-day-old Sanhuang broilers having similar body weight (averagely 153 g) were collected and randomly divided into 9 groups, 6 replicates in each group, 20 broilers in each replicate, with equal numbers of males and females. The henhouse and utensils were disinfected before the experiment. The broilers were kept in cages in the same henhouse under the same breeding conditions during the experiment. The basic diets mainly composed of corn and soybean meal, and no other antioxidant ingredients and growth promoters were added during the whole breeding process. The groups included a blank group, a control group, and experiment groups 1-7. […] For each replicate, the broilers were weighed (stopped feeding for 12 hours while water supply was maintained) at 42-day-old and their feed consumptions were recorded so as to calculate the average daily feed intake (ADFI), average daily weight gain (ADG) and feed conversion ratio (FCR). The experiment data were analyzed with SPSS18 software. The data were first analyzed by single factor analysis of variance (ANOVA), and if the differences between the groups were significant, multiple comparisons were performed using Duncan's method wherein the significance level was 0.05.

Take `CN(C)CC(=O)O.Cl` [Sample 1, N,N-dimethylglycine hydrochloride]: in data set [1], the “hygroscopicity (in words)” value is given as “very high hygroscopicity”, the “hygroscopic weight gain Day 5 (%)” value was 79.86 ± 0.94% and the “hygroscopic weight gain Day 10 (%)” value was 80.69 ± 0.59%.

As to `CN(C)CC(=O)[O-].[Na+]` [Sample 2, Sodium N,N-dimethylglycinate], in data set [1], the “hygroscopicity (in words)” value was “very high hygroscopicity”, the “hygroscopic weight gain Day 5 (%)” value was determined as 49.09 ± 1.14% and the “hygroscopic weight gain Day 10 (%)” value was 52.44 ± 0.48%.

With `CN(C)CC(=O)[O-].CN(C)CC(=O)[O-].O=C(O)/C=C/C(=O)O.[Cu+2]` [Sample 9, Conjugate acid salt of copper N,N-dimethylglycinate with fumaric acid], in the data set with grass carps, the “(FCR)” value turned out to be 1.43 ± 0.03, the “Final weight” value stood at 598.12 ± 9.27 g, the “Weight gain (%)” value is given as 139.12 ± 2.34% and the “SR (%)” value was 83.96 ± 5.68^b %.

With `CN(C)CC(=O)[O-].CN(C)CC(=O)[O-].O=C(O)/C=C/C(=O)O.[Zn+2]` [Sample 11, Conjugate acid salt of zinc N,N-dimethylglycinate with fumaric acid], in the data set with grass carps, the “(FCR)” value was 1.44 ± 0.02, the “Final weight” value was found to be 600.00 ± 9.30 g, the “Weight gain (%)” value was 139.98 ± 3.58% and the “SR (%)” value is listed as 84.94 ± 4.26^b %.

Regarding `CN(C)CC(=O)[O-].CN(C)CC(=O)[O-].O=C(O)c1ccccc1.O=C(O)c1ccccc1.[Zn+2]` [Sample 10, Conjugate acid salt of zinc N,N-dimethylglycinate with benzoic acid], in the data set with grass carps, the “(FCR)” value stood at 1.45 ± 0.03, the “Final weight” value is listed as 597.66 ± 9.69 g, the “Weight gain (%)” value is 133.08 ± 4.70% and the “SR (%)” value is reported as 78.04 ± 4.21^b %.

For the molecule `CN(C)CC(=O)[O][Zn][O]C(=O)CN(C)C` [Sample 11, Conjugate acid salt of zinc N,N-dimethylglycinate with fumaric acid], the “hygroscopic weight gain Day 10 (%)” value in data set [1] worked out at 2.88 ± 0.22%.

Turning to `CN(C)CC(=O)[O-].CN(C)CC(=O)[O-].O=C(O)c1ccccc1.O=C(O)c1ccccc1.[Cu+2]` [Sample 8, Conjugate acid salt of copper N,N-dimethylglycinate with benzoic acid], in the data set with grass carps, the “(FCR)” value was found to be 1.41 ± 0.03, the “Final weight” value was 598.68 ± 9.66 g, the “Weight gain (%)” value amounted to 143.40 ± 10.09% and the “SR (%)” value was 80.04 ± 3.80^b %.

As to `CN(C)CC(=O)[O-].CN(C)CC(=O)[O-].O=C(O)/C=C/C(=O)O.[Ca+2]` [Sample 6, Conjugate acid salt of calcium N,N-dimethylglycinate with fumaric acid], in the data set on grass carps, the “(FCR)” value is listed as 1.48 ± 0.03, the “Final weight” value stood at 589.33 ± 12.75 g, the “Weight gain (%)” value was determined as 138.98 ± 3.02% and the “SR (%)” value was 83.90 ± 5.30^b %.

Take `CN(C)CC(=O)[O-].CN(C)CC(=O)[O-].O=C(O)c1ccccc1.O=C(O)c1ccccc1.[Ca+2]` [Sample 5, Conjugate acid salt of calcium N,N-dimethylglycinate with benzoic acid]: in the data set on grass carps, the “(FCR)” value is listed as 1.48 ± 0.03, the “Final weight” value is 586.87 ± 10.44 g, the “Weight gain (%)” value was determined as 134.96 ± 2.82% and the “SR (%)” value is reported as 83.10 ± 3.65^b %. Moreover, the “hygroscopic weight gain Day 10 (%)” value in data set [1] is 3.69 ± 0.28%. Besides, the “breeding effect with respect to feed conversion efficiency compared with sodium N,N-dimethylglycinate” value in the data set with Sanhuang broilers is given as “equivalent to that of sodium N,N-dimethylglycinate”.

Take “Calcium N,N-dimethylglycinate [Sample 3]”: in data set [1], the “hygroscopicity (in words)” value is on record as “very high hygroscopicity”, the “hygroscopic weight gain Day 5 (%)” value stood at 38.40 ± 0.22% and the “hygroscopic weight gain Day 10 (%)” value stood at 41.83 ± 0.35%.

On to `CCCCCCCCCCCCCC(=O)O.CCCCCCCCCCCCCC(=O)O.CN(C)CC(=O)[O-].CN(C)CC(=O)[O-].[Ca+2]` [Sample 7, Conjugate acid salt of calcium N,N-dimethylglycinate with tetradecanoic acid], for which, in the data set on grass carps, the “(FCR)” value is recorded as 1.46 ± 0.04, the “Final weight” value amounted to 585.22 ± 11.23 g, the “Weight gain (%)” value is 134.40 ± 2.90% and the “SR (%)” value is reported as 73.00 ± 3.63^b %. In addition, in data set [1], the “hygroscopic weight gain Day 10 (%)” value came out at 3.06 ± 0.29%.
